Experimental data taken from patent US8658648B2, “Modified chloroquines with single ring moiety or fused ring moiety” (DesignMedix, Inc., priority 2008, dated 2014).
pIC50: −log10 of the molar value. Like-named read-outs stand apart in the source and are kept apart here.

Legend:
[1] = system: D6 (CQ^S) P. falciparum strain; assay: In vitro fluorescence (Sybr Green I) assay for IC50 against D6 strain; type: cell-based; conditions: Plasmodium falciparum, read-out: IC50-D6
Description: (§1) This method employs fluorescent detection of the level of parasitemia in cultured red blood cells and can be automated for high-throughput screening of antimalarial RCQs. This exemplary method allows the inhibitory agent (such as a MCQ) to be in contact with the parasite for an entire developmental cycle without purine starvation, which is in contrast to the traditional ^3H-hypoxanthine method (Desjardins et al. 1979. Antimicrob. Agents Chemother. 16(6):710-718, which is incorporated herein by reference in its entirety). Briefly, to perform the Smilkstein et al. method, an initial parasitemia of approximately 0.2% is attained by adding uninfected red blood cells (RBCs) to a stock culture of Plasmodium-infected RBCs. […] After a period of incubation (such as about 72 hours), a sufficient amount (e.g., 100 μL) of a fluorescent DNA binding dye-detergent mixture (e.g., Sybr Green I dye-detergent mixture) to lyse cells and bind to DNA is added to the reactions. Because uninfected RBCs have no DNA, only parasite DNA (in infected RBCs) is available for binding to the fluorescent dye (e.g., Sybr Green I). Samples are then incubated in the dark for a period of time (e.g., one hour), followed by measurement of levels of fluorescence. For Sybr Green 1, excitation and emission wavelength are 485 and 530 nm, respectively. Fluorescence readings, which represent the amount of parasite DNA in the sample, can be plotted against the Log [drug] and fit to a curve by nonlinear regression to obtain the IC50 value for the tested compound.
(§2) An in vitro fluorescence assay for determining IC50 of antimalarial drugs was performed as previously described by Smilkstein et al. (2004. Antimicrob. Agents Chemother. 48(5):1803-1806). This procedure can be automated for high-throughput screening of the antimalarial activities of RCQs described herein. This method also allows the tested agent (e.g., a MCQ) to be in contact with the parasite for an entire developmental cycle without purine starvation (which occurs with the commonly used ^3H-hypoxanthine method; see, e.g., Desjardins et al. 1979. Antimicrob. Agents Chemother. 16, (6):710-7188).
(§3) Briefly, an initial parasitemia of approximately 0.2% was attained by addition of uninfected red blood cells to a stock culture of cells infected with Dd2 (CQ^R), 7G8 (CQ^R), or D6 (CQ^S) P. falciparum strains. A 10 mM solution of a test compound (in DMSO) was prepared. The test compound (at a final concentration from 10^−11 to 10^−4 M) and infected red blood cells (at a final concentration of 2% (v/v)) were mixed in 100 μL samples in individual wells of a 96-well plate. Each sample was prepared in triplicate. A triplicate set of reactions containing CQ (instead of the test compound) was included as a control. After a 72 hour incubation period, Sybr Green I dye-detergent mixture (100 μL) was added to each reaction. The samples were further incubated for an hour in the dark, and then placed in a 96-well fluorescence plate reader (Gemini-EM, […]) and analyzed with excitation and emission wavelength bands at 485 and 530 nm, respectively. Fluorescence readings were plotted against the Log [drug], and curve fitting performed by nonlinear regression to find the IC50 value.

[2] = system: P. falciparum strain 7G8; conditions: cited from earlier work; also: key: S = sensitive; R = resistant; S/R = intermediate level of resistance
[3] = system: P. falciparum strain Dd2; conditions: cited from earlier work; also: key: S = sensitive; R = resistant; S/R = intermediate level of resistance
[4] = system: P. falciparum strain D6; conditions: cited from earlier work; also: key: S = sensitive; R = resistant; S/R = intermediate level of resistance
[5] = system: 7G8 (CQ^R) P. falciparum strain; assay: In vitro fluorescence (Sybr Green I) assay for IC50 against 7G8 strain; type: cell-based; conditions: Plasmodium falciparum, read-out: IC50-7G8
Description: as §1, §2, §3

[6] = system: P. falciparum strain W2; conditions: cited from earlier work; also: key: S = sensitive; R = resistant; S/R = intermediate level of resistance
[7] = system: Dd2 (CQ^R) P. falciparum strain; assay: In vitro fluorescence (Sybr Green I) assay for IC50 against Dd2 strain; type: cell-based; conditions: Plasmodium falciparum, read-out: IC50-Dd2
Description: as §1, §2, §3

[8] = system: P. falciparum strain FCR3; conditions: cited from earlier work; also: key: S = sensitive; R = resistant; S/R = intermediate level of resistance
[9] = system: P. falciparum strain 3D7; conditions: cited from earlier work; also: key: S = sensitive; R = resistant; S/R = intermediate level of resistance
[10] = system: P. falciparum strain TM91C235; conditions: cited from earlier work; also: key: S = sensitive; R = resistant; S/R = intermediate level of resistance
[11] = system: P. berghei; assay: In vivo activity in mice against P. berghei (survival); conditions: second 4× oral dose experiment, dosage equimolar to 30 mg/kg CQ; monitored up to 30 days
[12] = system: mitogen-induced marine spleen lymphocytes; type: cell-based; conditions: LC50; mouse spleen lymphocytes, 72 hours incubation, then resazurin 24 hours
Protocol: Mouse spleen lymphocytes were isolated from C57B1/6J mice by teasing tissues on a metallic sieve screen. […] Two hundred (200) μl isolated cells were then seeded in separate wells of a 96-well flat-bottom tissue culture plate at a density of 2×10^5 cells per well. […] After 72 hours incubation in a humidified atmosphere at 37° C. and 5% CO2, a solution of resazurin PBS was added to a final concentration 10 μM, and the plates were returned to the incubator for another 24 hours. Resazurin is a substrate which changes color in response to metabolic activity (such as that found in living cells). […] LC50 values were determined from plots of florescence versus drug concentration using non-linear regression by Prism software.

| pIC50 ([1]; D6, Erythrocyte, 72 h) | pIC50 ([5]; 7G8, Erythrocyte, 72 h) | pIC50 ([7]; DD2, Erythrocyte, 72 h) | SMILES | Drug susceptibility of P. falciparum strain 7G8 [2] | Drug susceptibility of P. falciparum strain Dd2 [3] | Drug susceptibility of P. falciparum strain D6 [4] | Drug susceptibility of P. falciparum strain W2 [6] | Drug susceptibility of P. falciparum strain FCR3 [8] | Drug susceptibility of P. falciparum strain 3D7 [9] | Drug susceptibility of P. falciparum strain TM91C235 [10] | pIC50 ([1]; Erythrocyte, D6 (CQ^S) strain in infected red blood cells, 72 hour incubation) | pIC50 ([5]; Erythrocyte, 7G8 (CQ^R) strain in infected red blood cells, 72 hour incubation) | average survival for the mice [11] [days] | pIC50 ([7]; Erythrocyte, Dd2 (CQ^R) strain in infected red blood cells, 72 hour incubation) | Cytotoxicity [12] [µM] |
| --- | --- | --- | --- | --- | --- | --- | --- | --- | --- | --- | --- | --- | --- | --- | --- |
| 8.16 | 6.97 | 6.99 | CCN(CC)CCCC(C)Nc1ccnc2cc(Cl)ccc12 (stereo not drawn) [Chloroquine, chloroquine] | R | R | S | R | R | S | R |  |  |  |  |  |
|  |  |  | Clc1ccc2c(NCCCN3CCN(c4ccccn4)CC3)ccnc2c1 [7-chloro-N-(3-(4-(pyridin-2-yl)piperazin-1-yl)propyl)quinolin-4-amine] |  |  |  |  |  |  |  | 8.57 | 8.02 | 20 | 8.32 | 8.6 |
